Experimental data reported in patent EP4781986A1, “PHARMACEUTICAL COMPOSITION HAVING IMPROVED PHARMACOKINETIC PROPERTIES” (Sichuan Purity Pharmaceutical Co., Ltd., priority 2023, dated 2025).
Like-named read-outs stand apart in the source and are kept apart here. Each block holds one compound with its values, some of them ahead of it.

Key:
[1] = stability test in liver microsomes (rat); type: in vitro ADME; settings: Rat liver microsomes
Description: The stability of the compound of the present invention in liver microsomes of rat, monkey and human was determined. Tested compounds of the present invention were the compounds in Examples 6 and 8 , and a control drug was Zavegepant.
3.2 An appropriate amount of liver microsome solution was transferred into a 1 mL 96-deep-well plate, added with a tested drug liquid (or a probe substrate solution), and pre-incubated in a thermal mixer at 37°C for 5 minutes. Two parts of mixed solutions were taken out from the system and added with 1×PBS to replace NADPH, and the mixed solutions were taken out at 0 and 60 minutes respectively, and added with methanol (containing an internal standard) to terminate the reaction. In the remaining mixed system, each well was added with NADPH to start the reaction. In the tested substance group, mixed solutions were taken out from the system at 0, 5, 15, 30, 45 and 60 minutes, and in the control group, mixed solutions were taken out from the system at 0, 30 and 60 minutes, and the mixed solutions were added methanol (containing an internal standard) to terminate the reaction. All samples of the terminated reaction were mixed evenly and centrifuged in a centrifuge at 3800 rpm for 15 minutes, and the supernatant was taken for LC-MS/MS analysis.
A peak area was determined by an extracted ion chromatogram. A slope value k was determined by linear regression of a remaining percentage of a parent drug relative to a natural logarithm of an incubation time curve. According to the slope, in-vitro half-life periods (t1/2) were respectively calculated, and in-vitro intrinsic clearance rates (CLint, represented by µL/min/mg protein) were calculated. Calculation formulas were as follows: t1/2 = ln2/k = 0.693/k; and CLint = 0.693/t1/2 /liver microsome protein concentration [formula]

[2] = PK properties in SD rats with or without 0.2% alkyl glycoside (DDM); type: in vivo; settings: for Tmax shortened by: 0.2% DDM vs without DDM; for Tmax(DDM 0.2%)/ Tmax(DDM 0%): 0.2% dodecyl-β-D-maltoside (DDM) vs without DDM; for Tmax: rat, in vivo
Text: During preparation of a test sample in the Test Example 5, a drug solution group with 0.2% dodecyl-β-D-maltoside (DDM) was also established and prepared in parallel, so as to compare and observe changes of PK properties in rats administered with the drug solution group with 0.2% dodecyl-β-D-maltoside (DDM) and the drug solution group without dodecyl-β-D-maltoside (DDM).

[3] = PK properties in monkeys with or without alkyl glycoside, intravenous route and nasal spray; type: in vivo, cynomolgus monkey; settings: for AUC / bioavailability / Cmax / half-life / Tmax / Vd: cynomolgus monkey, plasma; for AUC: read-out: Area under curve AUC; for bioavailability: read-out: Bioavailability F%; for Cmax: read-out: Concentration to peak Cmax; for half-life: read-out: Half-life period t1/2 (converted); for Tmax: read-out: Time to peak Tmax; for Vd: read-out: Volume of distribution steady-state Vss; for Tmax(DDM 0.2%)/ Tmax(DDM 0%) / onset time (Tmax) shortened by: monkeys, intranasal; for Tmax(DDM 0.2%)/ Tmax(DDM 0%): 0.2% DDM vs without DDM; for onset time (Tmax) shortened by: with vs without alkyl glycoside
Description: Species: cynomolgus monkey, male, 2-5 kg. Source: Ankai Yibo (Zhanjiang) Biotechnology Co., Ltd., Laboratory Animal Production License No.: SCXK (Yue) 2019-0046. Quantity: 3 cynomolgus monkeys were intravenously administered and 3 cynomolgus monkeys were administered by a nasal spray.
2.1 An appropriate amount of drug was accurately weighed and added with 50 mM succinate buffer (diluted with D5W, pH=5-6), and mixed evenly and dissolved fully in an ultrasonic and vortexed mode to obtain a 0.5 mg/mL drug solution for intravenous administration.
(§1) 2.2 An appropriate amount of drug was accurately weighed and added with a solvent 1: 50 mM succinate buffer (diluted with pure water, pH=5-6), and mixed evenly and dissolved fully in an ultrasonic and vortexed mode to obtain a 20 mg/mL drug solution, which was put into a nasal spraying device for administration by the nasal spray, 100 µL/spray.
as §1, with “2.3” for “2.2”, “2:” for “1:”, “(pH=5-6) containing 0.2% dodecyl-β-D-maltoside,” for “(diluted with pure water, pH=5-6),”
5 minutes, 10 minutes, 15 minutes, 0.5 hour, 1 hour, 2 hours, 4 hours, 6 hours, 8 hours, 10 hours, 12 hours and 24 hours after administration.
Blood was collected through a saphenous vein or a cephalic vein, about 0.6 mL of each sample was collected, EDTA-K2 was used for anticoagulation, the collected blood sample was placed on ice, and plasma was centrifugally separated within 2 hours (at 2000 g and 2-8°C for 10 minutes). The collected plasma samples were stored in a refrigerator at -80°C before analysis, and the remaining plasma samples after analysis were continuously stored in the refrigerator at -80°C for temporary storage.
A concentration of a specified compound in plasma was determined by LC-MS/MS, and main pharmacokinetic parameters were calculated by a Winnolin 8.3 non-compartmental model. When the pharmacokinetic parameters were calculated, BLQ before Cmax (comprising "No peak") was calculated as 0; and BLQ (comprising "No peak") after Cmax was excluded from the calculation.

[4] = 1 mg/kg, cynomolgus monkeys, IN@1 mg/kg (Solvent 1, no DDM)
[5] = 1 mg/kg, cynomolgus monkeys, IN@1 mg/kg (Solvent 2, 0.2% dodecyl-β-D-maltoside)
[6] = iv, 0.5 mg/kg, cynomolgus monkeys, IV@0.5 mg/kg
[7] = cynomolgus monkeys, IV@0.5 mg/kg
[8] = male, other: intranasal (nasal spray), 1 mg/kg, cynomolgus monkeys, IN@1 mg/kg (Solvent 1, no DDM)
[9] = male, other: intranasal (nasal spray), 1 mg/kg, cynomolgus monkeys, IN@1 mg/kg (Solvent 2, 0.2% dodecyl-β-D-maltoside)
[10] = male, other: intranasal (nasal spray), cynomolgus monkeys, IN@1 mg/kg (Solvent 2, 0.2% dodecyl-β-D-maltoside)
[11] = male, other: nasal spray (intranasal), cynomolgus monkeys, IN@1 mg/kg (Solvent 1, no DDM)
[12] = male, cynomolgus monkeys, IV@0.5 mg/kg

Compound: Cc1cc(C[C@@H](NC(=O)N2CCC(c3cc4c([nH]c3=O)SCCC4)CC2)C(=O)N2CCN(C3CCN(C)CC3)CC2)cc2cn[nH]c12 [Example 6, (R)-N-(3-(7-methyl-1H-indazole-5-yl)-1-(4-(1-methylpiperidine-4-yl)piperazine-1-yl)-1-oxopropan-2-yl)-4-(7-oxo-3,4,7,8-tetrahydro-2H-thiopyrano[2,3-b]pyridine-6-yl)piperidine-1-formamide]
- CLint [1]: 2.4 µL/min/mg
- % remaining (60 min) [1]: 91.5%
- Tmax shortened by ([2]; intranasal): 83.3%
- Tmax(DDM 0.2%)/ Tmax(DDM 0%) ([2]; intranasal): 16.7%
- Tmax ([2]; intranasal, 0.2% DDM): 0.167 h
- Tmax ([2]; intranasal, not added with DDM (0%DDM)): 1 h
- AUC [3, 4]: 43.2 ng·h/mL
- bioavailability [3, 4]: 1.99%
- Cmax [3, 4]: 12.7 ng/mL
- half-life [3, 4]: 9 h
- Tmax [3, 4]: 1 h
- AUC [3, 5]: 780 ng·h/mL
- bioavailability [3, 5]: 29.8%
- Cmax [3, 5]: 663 ng/mL
- half-life [3, 5]: 5.57 h
- Tmax [3, 5]: ~0.17 h
- AUC [3, 6]: 1140 ng·h/mL
- Cmax [3, 6]: 3200 ng/mL
- half-life [3, 6]: 4.98 h
- Vd [3, 7]: 0.652 L/kg
- Tmax(DDM 0.2%)/ Tmax(DDM 0%) [3]: 16.7%
- onset time (Tmax) shortened by [3]: 83.3%

- % remaining (60 min) [1]: 90.7%
- Tmax ([2]; Sprague-Dawley, inhaled or intranasal, 0.2% DDM): 0.167 h
- Tmax ([2]; Sprague-Dawley, inhaled or intranasal, not added with DDM (0%DDM)): 0.209 h
- Tmax shortened by ([2]; intranasal): 20.1%
- Tmax(DDM 0.2%)/ Tmax(DDM 0%) ([2]; intranasal): 79.9%
- Apparent clearance CL [3, 7]: 9.27 mL/min/kg
- bioavailability [3, 8]: 2.5%
- Tmax [3, 8]: 1 h
- bioavailability [3, 9]: 26.4%
- Tmax [3, 9]: ~0.17 h
- AUC [3, 10]: 412 ng·h/mL
- Cmax [3, 10]: 401 ng/mL
- half-life [3, 10]: 4.92 h
- AUC [3, 11]: 46.1 ng·h/mL
- Cmax [3, 11]: 13.4 ng/mL
- half-life [3, 11]: 5.58 h
- AUC [3, 12]: 924 ng·h/mL
- Cmax [3, 12]: 2280 ng/mL
- half-life [3, 12]: 4.98 h
- Vd [3, 12]: 0.738 L/kg
- Tmax(DDM 0.2%)/ Tmax(DDM 0%) [3]: 16.7%
- onset time (Tmax) shortened by [3]: 83.3%
Compound: Cc1cc(C[C@@H](NC(=O)N2CCC(c3cc4c([nH]c3=O)SCC4)CC2)C(=O)N2CCN(C3CCN(C)CC3)CC2)cc2cn[nH]c12 [Example 8, (R)-N-(3-(7-methyl-1H-indazole-5-yl)-1-(4-(1-methylpiperidine-4-yl)piperazine-1-yl)-1-oxopropan-2-yl)-4-(6-oxo-2,3,6,7-tetrahydrothieno[2,3-b]pyridine-5-yl)piperidine-1-formamide]
